Data on six molecules can be found in patent US9745275B2, “Pain-related compound and medical composition” (KYOTO UNIVERSITY, priority 2013, dated 2017).

What all share (type): in vivo, mouse
Test [1] has as its system carrageenan-induced inflammatory pain model mice. Description: von Frey test, mechanical allodynia in carrageenan-induced inflammatory pain model mice. Particulars: for threshold of withdrawal reflex behavior to mechanical stimulation (FIG. 3A, FIG. 5A): intrathecal, given 6 h after carrageenan, examined over three hours (compound 2: 0.1, 1 or 10 pmol). As for the experimental part: After subcutaneous plantar administration of carrageenan, acute inflammation develops over several hours, which causes a phenomenon of hypersensitivity to mechanical stimulation and thermal stimulation. A therapeutic agent containing the compound 1 as an active ingredient was administered to each of model mice of this carrageenan-induced inflammatory pain, and pain was evaluated.
More specifically, at seven hours after carrageenan was subcutaneously administered to a hind limb sole of each mouse (male, C57BL/6J, 6 to 8 weeks old), the compound 1 was administered orally, and at one hour after the administration of the compound 1, therapeutic effects thereof with respect to mechanical allodynia were determined. Specific conditions are as follows.
Mouse: C57BL/6J, male, 8 weeks old, n =4 (each foot, n=8) Induction of pain: 25 μL of physiological saline solution containing 2% of λ-carrageenan was injected subcutaneously to hind limb soles, so that pain was induced. […]
Evaluation of pain: Evaluation was performed by von Frey test. More specifically, a hind limb sole of the mouse was mechanically stimulated with tips of von-Frey filaments having a variety of thicknesses, and a load of stimulation at which the mouse initiated a withdrawal behavior was determined. […]
(§1) Before and after carrageenan (2%, 25 μl) was subcutaneously administered to a one-side hind limb sole of each mouse (male, C57BL/6J, 6 to 8 weeks old), mechanical stimulation or thermal stimulation was applied, and threshold (mechanical stimulation) and latency (thermal stimulation) of a withdrawal reflex behavior of the hind limb were measured. […]
as §1

Test [2] has the same test system. Description: latency of withdrawal reflex to thermal stimulation (thermal hyperalgesia) in carrageenan-induced inflammatory pain model mice. Particulars: given 6 h after carrageenan; for suppression of thermal hyperalgesia: intrathecal, examined over three hours (compound 2: 0.1, 1 or 10 pmol). As for the experimental part:
Before and after carrageenan (2%, 25 μl) was subcutaneously administered to a one-side hind limb sole of each mouse (male, C57BL/6J, ([…]), thermal stimulation was applied, and latency of a withdrawal reflex behavior of the hind limb was measured. The appearance of the phenomenon of thermal hyperalgesia due to carrageenan was checked over six hours after the administration, and thereafter, the compound 1 or a solvent used for dissolution (veh.) was administered orally (1 pmol or 10 pmol per 1 g of the mouse body). Effects were examined over two hours thereafter. The results are illustrated in FIG. 2.
Before and after carrageenan (2%, 25 μl) was subcutaneously administered to a one-side hind limb sole of each mouse (male, C57BL/6J, 6 to 8 weeks old), mechanical stimulation or thermal stimulation was applied, and threshold (mechanical stimulation) and latency (thermal stimulation) of a withdrawal reflex behavior of the hind limb were measured. The appearance of the phenomenon of mechanical allodynia or the appearance of thermal hyperalgesia due to carrageenan was checked over six hours after the administration, and thereafter, the compound 2 was administered intrathecally (0.1 pmol, 1 pmol, or 10 pmol). Effects were examined over three hours thereafter. The solution of the compound 2 was prepared by dissolving the compound 2 in 99% DMSO, and diluting the same with physiological saline solution (0.2% DMSO in physiological saline solution).
Before and after carrageenan (2%, 25 μl) was subcutaneously administered to a one-side hind limb sole of each mouse (male, C57BL/6J, 6 to 8 weeks old), mechanical stimulation or thermal stimulation was applied, and threshold (mechanical stimulation) and latency (thermal stimulation) of a withdrawal reflex behavior of the hind limb were measured. The appearance of the phenomenon of mechanical allodynia or the appearance of the thermal hyperalgesia due to carrageenan was checked over six hours after the administration, and thereafter, the compound 4 was administered intrathecally. Effects were examined over three hours thereafter. The solution of the compound 4 was prepared by dissolving the […] in 99% DMSO, and diluting the same with physiological saline solution (0.2% DMSO in physiological saline solution). The results are illustrated in FIG. 5.
Before and after carrageenan (2%, 25 μl) was subcutaneously administered to a one-side hind limb sole of each mouse (male, C57BL/6J, 6 to 8 weeks old), thermal stimulation was applied, and latency of a withdrawal reflex behavior of the hind limb was measured. The appearance of the phenomenon of thermal hyperalgesia due to carrageenan was checked over six hours after the administration, and thereafter, the compound 5 was administered intrathecally. Effects were examined over three hours thereafter. The solution of the compound 5 was prepared by dissolving the compound 5 in 99% DMSO, and diluting the same with physiological saline solution (0.2% DMSO in physiological saline solution). The results are illustrated in FIG. 6.
Before and after carrageenan (2%, 25 μl) was subcutaneously administered to a one-side hind limb sole of each mouse (male, C57BL/6J, 6 to 8 weeks old), thermal stimulation was applied, and latency of a withdrawal reflex behavior of the hind limb was measured. […]

Test [3] has the same test system. Description: von Frey test with simultaneous administration of compound and opioid antagonist in carrageenan-induced inflammatory pain model mice. Particulars: intraperitoneal, compound 1 nmol/g plus opioid antagonist 20 nmol/g, 7 h after carrageenan, evaluated at 1 h and 3 h. As for the experimental part:
Carrageenan was subcutaneously injected to a hind limb sole of each mouse, and seven hours later, the compound 1 and an opioid antagonist were simultaneously administered intraperitoneally. At one hour after the administration and at three hours after the administration, therapeutic effects with respect to mechanical allodynia were evaluated. Specific conditions were as follows.
Mouse: C57B116J, male, 8 weeks old
Induction of pain: Pain was induced by subcutaneously injecting 20 μL of physiological saline solution containing 2% λ-carrageenan to a hind limb sole.
Administration of therapeutic agent: 1% Tween80 (trademark) physiological saline solution containing 2% DMSO in which the compound 1 and an opioid antagonist described below were dissolved was administered intraperitoneally, in an amount of 0.01 mL per 1 g of the body weight (about 0.2 mL of the solution was administered per one mouse). The compound 1 was prepared so as to be 1 nmol per 1 g of the body weight of the mouse. The opioid antagonist was prepared so as to be 20 nmol per 1g of the body weight of the mouse.
Opioid antagonist MNTX: Methylnaltrexone bromide Antagonist selective to a […]. Unable to pass through the blood-brain barrier.
Opioid antagonist NAL-M: Naloxone methioclide Antagonist not selective to an opioid receptor. Unable to pass through the blood-brain barrier. […]

Test [4] deals with complete Freund's adjuvant-induced inflammatory pain model mice. Briefly: threshold of withdrawal reflex to mechanical stimulation in complete Freund's adjuvant-induced inflammatory pain model mice. Particulars: intrathecal, three days after CFA, examined over three hours. As for the experimental part:
Subcutaneous plantar administration of complete Freund's adjuvant (CFA) caused prolonged inflammation, which was more persistent than the inflammation caused in the carrageenan models, and this caused phenomena of hypersensitivity to mechanical stimulation and thermal stimulation. Using these CFA model mice, pain therapy effects of the compound 3 were evaluated. Before and after CFA (25 μl) was subcutaneously administered to a one-side hind limb sole of each mouse (male, C57BL/6J, 6 to 8 weeks old), mechanical stimulation was applied, and threshold of a withdrawal reflex behavior of the hind limb was measured. The appearance of the phenomenon of mechanical allodynia due to CFA was checked three days after the administration, and the compound 3 was administered intrathecally. Effects were examined over three hours thereafter. The solution of the compound 3 was prepared by dissolving the compound 3 in 99% DMSO, and diluting the same with physiological saline solution (0.2% DMSO in physiological saline solution). The results are illustrated in FIG. 4.

Consider `CCN1/C(=C/C(C)=O)Sc2c(OC)cccc21` [compound 4], for which the “threshold of withdrawal reflex behavior to mechanical stimulation (FIG. 3A, FIG. 5A)” value in test [1] is listed as “significantly suppressed”. In addition, in test [2], the “suppression of thermal hyperalgesia” value is reported as “significantly suppressed”.
Regarding `CCN1/C(=C/C(C)=O)Sc2ccc(Cl)cc21` [compound 6, (1Z)-1-(5-chloro-3-ethyl-2(3H)-benzothiazoylidene)propan-2-one], the “suppression of thermal hyperalgesia” value in test [2] is given as “significantly suppressed”.
Turning to `CCN1/C(=C/C(C)=O)Sc2ccc(F)cc21` [compound 1, (1Z)-1-(3-ethyl-5-fluoro-2(3H)-benzothiazolylidene)-2-propanone], the “therapeutic effect on mechanical allodynia (threshold load of withdrawal behavior, von Frey filaments), FIG. 1” value in test [1] (oral, 1 nmol per 1 g body weight, 7 h after carrageenan, evaluated 1 h after administration, C57BL/6J male mice) is “significantly reduced”. Besides, the “therapeutic effect on thermal hyperalgesia (latency of withdrawal reflex to thermal stimulation), FIG. 2” value in test [2] (oral, 1 pmol or 10 pmol per 1 g of mouse body, examined over two hours) is reported as “significantly reduced”. Further, in test [3], the “analgesic action on mechanical allodynia with simultaneous opioid antagonist (MNTX or NAL-M), FIG. 8” value was “hindered by a peripheral opioid antagonist”.
Turning to `CCN1/C(=C/C(C)=O)Sc2ccc(OC)cc21` [compound 2], in test [1], the “threshold of withdrawal reflex behavior to mechanical stimulation (FIG. 3A, FIG. 5A)” value is on record as “significantly reduced”. Moreover, the “suppression of thermal hyperalgesia” value in test [2] is given as “significantly reduced”.
Regarding `CCN1/C(=C/C(C)=O)Sc2ccc(Br)cc21` [compound 5, (1Z)-1-(5-bromo-3-ethyl-2(3H)-benzothiazoylidene)-2-propanone], the “suppression of thermal hyperalgesia” value in test [2] is “significantly suppressed”.
Take `CCN1/C(=C/C(C)=O)Sc2cc(OC)ccc21` [compound 3, (1Z)-1-(3-ethyl-6-methoxy-2(3H)-benzothiazoylidene)-2-propanone]: the “threshold of withdrawal reflex behavior to mechanical stimulation, FIG. 4” value in test [4] is on record as “significantly suppressed”.
